Measurements reported in patent US20140221639A1, “RADIOLABELED NUCLEOSIDE ANALOGUE, AND PREPARATION METHOD AND USE THEREOF” (Institute of Nuclear Energy Research Atomic Energy Council, …, priority 2011, published 2014).
Values joined by “and” are separate entries in the source; they are usually repeats but may differ in a detail not shown here. Equal entries are not always repeated. Where two headings read alike, the source gives them in different places. Each block holds one compound with its values, some of them ahead of it.

Experiments:
[1] = in human body, as shown in literatures; cited from earlier work
[2] = in mice, as shown in literatures; cited from earlier work
[3] = literature; cited from earlier work
LL/2 cells = test: Cellular uptake test (ratio of cell to medium); assay type: cell-based; details: 1, 2, 4 and 8 h
Procedure: (§1) 2×10^6 cells was inoculated in a 15 cm^2 dish containing 14 mL medium supplemented with 10% FBS. […] At specified time points (using I-131 tracer at 1, 2, 4 and 8_h), the cells on the dish was harvested by using a cell scraper. Then, a cell suspension was transferred to a 15 mL centrifuge tube and centrifuged (at 3500 rpm) for 2 min. After centrifugation, 100 μL centrifugate was collected to a preweighed counting tube and directly poured into a maintained medium. Cell pellets were frozen with dry ice, and further collected into another weighed counting tube. […] Accumulation of activity of radioactive trancer in cell in vitro is represented by a radio of cell to medium:
(§2) Uptake experimental results of the two radioactive nucleoside analogues [^131I]IUdR and [^131I]ICdR in cells are as shown in FIGS. 4((a), (b)).

NG4TL4 cells = test: Cellular uptake test (ratio of cell to medium); assay type: cell-based; details: 1, 2, 4 and 8 h
Procedure: as §1, §2

NG4TL4 sarcoma cells = test: Study on incorporation in DNA; assay type: cell-based; details: 1 μCi/mL medium, 0.5-8 h
Procedure: DNA was extracted with Genomic DNA Mini Kit (Geneaid Biotech Ltd., Taiwan). NG4TL4 cell lines were harvested and inoculated into a petri dish at 2×10^6. […] At 0.5, 1, 2, 4 and 8 h after incubation, the medium was removed, and the cells was washed two times with ice-cold PBS, and then sheared with trypsin and collected to a centrifuge tube for centrifugation (at […] for 1 min). The supernatant was removed, while 50 μL remaining buffer was left to keep the cells in suspension. 300 μL cell lysis buffer was added to the sample and uniformly mixed, the cells was cultured in a water bath at 60° C. for a sereral minutes till the solution was transparent (the sample was inversed once every 3 min). 2 μL RNAse (25 mg/mL) was added to the sample and uniformly mixed, after 5-min incubation at room temperature, 100 μL protein removal buffer was added to the sample, uniformly mixed immediately, and centrifuged for 3 min at full speed (14000 rpm) after 5-min incubation on ice. The resulting solution was transferred as a suspension to another tube, and isopropanol was added and thoroughly mixed. […] In the test, DNA purity was determined at absorption wavelengths of 260 nm and 280 nm, and the ratio of absorbances (OD260/OD280) was about 1.7.

[4] = Analysis of metabolites in blood and urine through NP-TLC; assay type: in vivo, FVB/N mice; details: NP-TLC CH2Cl2/MeOH = 15/1
Procedure: Blood samples were obtained by heart puncture, and then centrifuged at 13,000 rpm for 10 min. Then, the supernatant (about 300 μL) was placed in a 1.5 mL centrifuge tube containing equal amount of ethanol, and then centrifuged again to obtain the serum.

NG4TL4-WT tumor = test: Biodistribution study in tumor-bearing mice; assay type: in vivo, FVB/N mice; details: for Biodistribution Blood / Biodistribution Bone / Biodistribution Kidney / Biodistribution Large Intestine / Biodistribution Liver / Biodistribution Lung / Biodistribution Marrow / Biodistribution Pancreas / Biodistribution Stomach / Biodistribution Tumor / Biodistribution Heart / Biodistribution Spleen / Biodistribution Small Intestine / Biodistribution Muscle: 80~90 μCi tail vein, FVB/N mice with NG4TL4-WT tumor
Text: […] Tumor and 13 other tissures (blood, heart, lung, liver, stomach, small intestine, large intestine, spleen, pancreas, kidney, bone, marrow, and muscle) were removed, rinsed, weighed, and determined for radioactivity with a γ scintilation counter. Uptake of the radioactive trancers in the tissues (counts per min) was calibrated against decay, normalizedto sample weight, and expressed as percentages of injected dosage per gram of tissue (% ID/g) and aggregation ratio of tumor to blood.

[5] = healthy FVB/N mice, intravenous 200 μCi, blood radioactivity
[6] = 5 min after ^131I-IUdR at tail vein
[7] = 15 min after ^131I-IUdR at tail vein

SMILES: O=c1[nH]c(=O)n([C@H]2C[C@H](O)[C@@H](CO)O2)cc1I [IUdR]
in vivo physiological half life [1]: 5 min
in vivo physiological half life [2]: 7 min

SMILES: Cc1cn([C@@H]2O[C@H](CO)[C@@H](O)[C@@H]2[18F])c(=O)[nH]c1=O [[^18F]FMAU, 2-[^18F]fluoro-5-methyl-1-β-D-arabinofuranosyluracil]
stability in the organism [3]: very stable

^131I-IU (%) in Blood [4, 6]: 3.65 ± 3.03%
^131I-IU (%) in Urine [4, 6]: 4.45 ± 3.03%
^131I-IUdR (%) in Blood [4, 6]: 25.23 ± 2.88%
^131I-IUdR (%) in Urine [4, 6]: 8.60 ± 2.88%
^131I-I^- (%) in Blood [4, 6]: 71.1% and 71.12 ± 5.83%
^131I-I^- (%) in Urine [4, 6]: 88.0% and 86.96 ± 5.83%
^131I-IU (%) in Blood [4, 7]: 1.58 ± 0.72%
^131I-IU (%) in Urine [4, 7]: 2.76 ± 1.23%
^131I-IUdR (%) in Blood [4, 7]: 6.42 ± 3.89%
^131I-IUdR (%) in Urine [4, 7]: 5.23 ± 2.05%
^131I-I^- (%) in Blood [4, 7]: 92.00 ± 4.51%
^131I-I^- (%) in Urine [4, 7]: 92.02 ± 3.27%
Biodistribution Blood (NG4TL4-WT tumor; 5 min): 13.62 ± 1.19 % ID/g
Biodistribution Bone (NG4TL4-WT tumor; 5 min): 233 ± 035 % ID/g
Biodistribution Kidney (NG4TL4-WT tumor; 5 min): 18.81 ± 2.44 % ID/g
Biodistribution Large Intestine (NG4TL4-WT tumor; 5 min): 7.18 ± 038 % ID/g
Biodistribution Liver (NG4TL4-WT tumor; 5 min): 15.99 ± 2.06 % ID/g
Biodistribution Lung (NG4TL4-WT tumor; 5 min): 933 + 0.69 % ID/g
Biodistribution Marrow (NG4TL4-WT tumor; 5 min): 3.98 ± 1.44 % ID/g
Biodistribution Pancreas (NG4TL4-WT tumor; 5 min): 6.43 ± 0.41 % ID/g
Biodistribution Stomach (NG4TL4-WT tumor; 5 min): 7.04 ± 0.98 % ID/g
Biodistribution Tumor (NG4TL4-WT tumor; 5 min): 635 ± 1.93 % ID/g
Biodistribution Blood (NG4TL4-WT tumor; 30 min): 835 ± 132 % ID/g
Biodistribution Bone (NG4TL4-WT tumor; 30 min): 2.55 ± 030 % ID/g
Biodistribution Heart (NG4TL4-WT tumor; 30 min): 3.15 ± 0.4S
Biodistribution Kidney (NG4TL4-WT tumor; 30 min): 6.95 ± 0.77 % ID/g
Biodistribution Large Intestine (NG4TL4-WT tumor; 30 min): 5.43 ± 0.88 % ID/g
Biodistribution Liver (NG4TL4-WT tumor; 30 min): 3.73 ± 0.57 % ID/g
Biodistribution Lung (NG4TL4-WT tumor; 30 min): 5.80 ± 0.42 % ID/g
Biodistribution Marrow (NG4TL4-WT tumor; 30 min): 538 ± 1.57 % ID/g
Biodistribution Pancreas (NG4TL4-WT tumor; 30 min): 5.52 ± 0.84 % ID/g
Biodistribution Spleen (NG4TL4-WT tumor; 30 min): 6.79 ± 1.66 % ID/g
Biodistribution Stomach (NG4TL4-WT tumor; 30 min): 24.71 ± 3.20 % ID/g
Biodistribution Tumor (NG4TL4-WT tumor; 30 min): 6.11 ± 0.97 % ID/g
Biodistribution Blood (NG4TL4-WT tumor; 1 h): 6.41 ± 036 % ID/g
Biodistribution Bone (NG4TL4-WT tumor; 1 h): 1.59 ± 039 % ID/g
Biodistribution Heart (NG4TL4-WT tumor; 1 h): 2.43 ± 0.56 % ID/g
Biodistribution Large Intestine (NG4TL4-WT tumor; 1 h): 4.73 ± 1.16 % ID/g
Biodistribution Liver (NG4TL4-WT tumor; 1 h): 2.68 ± 0.48 % ID/g
Biodistribution Marrow (NG4TL4-WT tumor; 1 h): 9.86 ± 4.50 % ID/g
Biodistribution Pancreas (NG4TL4-WT tumor; 1 h): 2.84 ± 0.57 % ID/g
Biodistribution Small Intestine (NG4TL4-WT tumor; 1 h): 6.80 ± 0.81 % ID/g
Biodistribution Spleen (NG4TL4-WT tumor; 1 h): 4.18 ± 035 % ID/g
Biodistribution Tumor (NG4TL4-WT tumor; 1 h): 6.61 ± 033 % ID/g
Biodistribution Blood (NG4TL4-WT tumor; 2 h): 4.19 ± 0.60 % ID/g
Biodistribution Bone (NG4TL4-WT tumor; 2 h): 132 ± 033 % ID/g
Biodistribution Liver (NG4TL4-WT tumor; 2 h): 1.67 ± 0.18 % ID/g
Biodistribution Lung (NG4TL4-WT tumor; 2 h): 2.86 ± 0.55 % ID/g
Biodistribution Marrow (NG4TL4-WT tumor; 2 h): 6.88 ± 1.19 % ID/g
Biodistribution Muscle (NG4TL4-WT tumor; 2 h): 0.93 ± 0.14 % ID/g
Biodistribution Pancreas (NG4TL4-WT tumor; 2 h): 2.50 ± 0.58 % ID/g
Biodistribution Small Intestine (NG4TL4-WT tumor; 2 h): 6.77 ± 1.50 % ID/g
Biodistribution Spleen (NG4TL4-WT tumor; 2 h): 3.60 ± 0.40 % ID/g
Biodistribution Stomach (NG4TL4-WT tumor; 2 h): 15.93 + 333 % ID/g
Biodistribution Tumor (NG4TL4-WT tumor; 2 h): 5.63 ± 0.74 % ID/g
Biodistribution Blood (NG4TL4-WT tumor; 4 h): 1.96 ± 0.49 % ID/g
Biodistribution Bone (NG4TL4-WT tumor; 4 h): 0.62 ± 0.29 % ID/g
Biodistribution Heart (NG4TL4-WT tumor; 4 h): 0.88 ± 0.46 % ID/g
Biodistribution Kidney (NG4TL4-WT tumor; 4 h): 1.77 ± 0.71 % ID/g
Biodistribution Lung (NG4TL4-WT tumor; 4 h): 1.60 ± 0.71 % ID/g
Biodistribution Marrow (NG4TL4-WT tumor; 4 h): 6.63 ± 3.84 % ID/g
Biodistribution Muscle (NG4TL4-WT tumor; 4 h): 0.53 ± 0.26 % ID/g
Biodistribution Pancreas (NG4TL4-WT tumor; 4 h): 1.18 ± 0.56 % ID/g
Biodistribution Small Intestine (NG4TL4-WT tumor; 4 h): 4.76 ± 1.26 % ID/g
Biodistribution Spleen (NG4TL4-WT tumor; 4 h): 1.86 ± 0.63 % ID/g
Biodistribution Stomach (NG4TL4-WT tumor; 4 h): 4.49 ± 3.02 % ID/g
Biodistribution Tumor (NG4TL4-WT tumor; 4 h): 3.97 ± 1.00 % ID/g
Biodistribution Blood (NG4TL4-WT tumor; 8 h): 0.48 ± 0.23 % ID/g
Biodistribution Bone (NG4TL4-WT tumor; 8 h): 036 ± 0.12 % ID/g
Biodistribution Heart (NG4TL4-WT tumor; 8 h): 0.19 ± 0.09 % ID/g
Biodistribution Kidney (NG4TL4-WT tumor; 8 h): 0.56 ± 0.21 % ID/g
Biodistribution Large Intestine (NG4TL4-WT tumor; 8 h): 1.78 ± 0.57 % ID/g
Biodistribution Lung (NG4TL4-WT tumor; 8 h): 0.44 ± 0.21 % ID/g
Biodistribution Marrow (NG4TL4-WT tumor; 8 h): 5.00 ± 1.59 % ID/g
Biodistribution Muscle (NG4TL4-WT tumor; 8 h): 0.13 ± 0.03 % ID/g
Biodistribution Small Intestine (NG4TL4-WT tumor; 8 h): 3.40 ± 0.60 % ID/g
Biodistribution Tumor (NG4TL4-WT tumor; 8 h): 2.50 ± 0.79 % ID/g
excretion of drug and metabolites (NG4TL4-WT tumor; mice): mainly through the urinary system
Cmax [5]: 18.91 ± 6.16 % ID/mL
t1/2α [5]: 4.8 ± 1.2 min
t1/2β [5]: 2.28 ± 0.90 h
Cmax ([5]; listed as 131I-IudR): 18.91±6.16 % ID/mL
t1/2α ([5]; listed as 131I-IudR): 4.8 ± 1.2 min
t1/2β ([5]; listed as 131I-IudR): 2.28 ± 0.90 h
SMILES: O=c1[nH]c(=O)n([C@H]2C[C@H](O)[C@@H](CO)O2)cc1[131I] [^131I-IUdR, 5-[^124/131I]iodo-2′-deoxyuridine, reference compound]
uptake value over time (LL/2 cells): continuously increased with time
uptake value over time (NG4TL4 cells): continuously increased with time
incorporation into cells / radioactive accumulation in DNA with time (NG4TL4 sarcoma cells): linearly incorporated
accumulation in organs (biodistribution and imaging) (NG4TL4-WT tumor; tumor-bearing mice): obviously accumulated in organs that rapidly proliferates
